Data on seven molecules can be found in patent US20210038607A1, “OXADIAZOLYLTHIOPHENE DERIVATIVES USEFUL AS HISTONE DEACETYLASE INHIBITORS” (Karus Therapeutics Limited, priority 2018, published 2021).

One assay concerns the target T1, Human HDAC8 (Homo sapiens, UniProt Q9BY41).
T1 construct: full length with C-terminal His tag, MW=42.6 kDa; His (C); host or cells: baculovirus expression system
T1 sequence (Q9BY41 1-377): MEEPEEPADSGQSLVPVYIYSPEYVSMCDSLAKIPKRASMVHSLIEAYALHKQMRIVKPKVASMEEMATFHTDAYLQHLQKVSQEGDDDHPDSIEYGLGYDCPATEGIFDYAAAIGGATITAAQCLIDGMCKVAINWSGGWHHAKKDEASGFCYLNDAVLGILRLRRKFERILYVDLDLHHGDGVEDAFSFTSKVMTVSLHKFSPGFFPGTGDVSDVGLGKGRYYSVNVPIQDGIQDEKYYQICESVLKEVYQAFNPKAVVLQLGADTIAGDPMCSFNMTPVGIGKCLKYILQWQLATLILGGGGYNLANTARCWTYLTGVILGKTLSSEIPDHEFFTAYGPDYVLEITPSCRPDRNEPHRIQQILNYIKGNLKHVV
The experiment in a line: HDAC8 biochemical assay, AMC-labeled peptide substrate. The settings on record: read-out: HDAC Isoform IC50 (nM) 8. The gist of the method:
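Two-step fluorogenic readout: compounds and enzyme deacetylate 100 µM RHK(Ac)K(Ac)AMC for 2 h at 30° C (pH8.0 Tris buffer, BSA, 1% DMSO final), then developer releases AMC, read at 360/460 Ex/Em. Enzyme: 1 ng/ul full-length His-tagged human HDAC8 from baculovirus.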

The next assay has as its target T2, Human HDAC4 (Homo sapiens, UniProt P56524).
T2 construct: amino acids 627-1085 with N-terminal GST tag; GST (N); host or cells: baculovirus expression system
The experiment in a line: HDAC4 biochemical assay, class IIa-specific substrate. The settings on record: read-out: HDAC Isoform IC50 (nM) 4. The gist of the method: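 Two-step fluorogenic read-out: deacetylated BOC-Lys(trifluoroacetyl)-AMC (50 μM) was digested by developer and measured at Ex/Em 360/460. Deacetylation by 0.004 ng/ul HDAC4 (aa 627-1085, N-terminal GST) ran 30 min at room temperature, pH 8.0 Tris buffer, 1 mg/mL BSA, 1% DMSO.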

For a further assay, the target named is T3, Human HDAC9 (Homo sapiens, UniProt Q9UKV0).
T3 construct: amino acids 604-1066 with C-terminal His tag; His (C); host or cells: baculovirus expression system
The experiment in a line: HDAC9 biochemical assay, class IIa-specific substrate. Particulars: read-out: HDAC Isoform IC50 (nM) 9. The gist of the method:
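HDAC9 residues 604-1066 (C-terminal His tag, baculovirus-expressed) at 0.06 ng/ul with 50 μM class IIa substrate Boc-Lys(trifluoroacetyl)-AMC in Tris-HCl pH 8.0 buffer with BSA and 1% DMSO. 30 min at room temperature, then developer added; fluorescence read at 360/460 nm Ex/Em.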

In a further assay the target is T4, Human HDAC11 (Homo sapiens, UniProt Q96DB2).
T4 construct: Human HDAC11 (full length); His (N); host or cells: baculovirus expression system
T4 sequence (Q96DB2 1-347): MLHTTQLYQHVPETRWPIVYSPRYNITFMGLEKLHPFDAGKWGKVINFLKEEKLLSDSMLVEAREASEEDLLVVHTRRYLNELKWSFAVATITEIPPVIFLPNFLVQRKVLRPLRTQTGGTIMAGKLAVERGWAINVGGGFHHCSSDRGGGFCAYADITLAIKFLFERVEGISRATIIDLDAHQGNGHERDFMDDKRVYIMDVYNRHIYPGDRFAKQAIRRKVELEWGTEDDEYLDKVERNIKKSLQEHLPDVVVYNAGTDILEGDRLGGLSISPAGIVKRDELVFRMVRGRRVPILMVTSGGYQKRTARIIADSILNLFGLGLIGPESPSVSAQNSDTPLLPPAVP
The experiment in a line: HDAC11 biochemical assay, class IIa-specific substrate. The settings on record: read-out: HDAC Isoform IC50 (nM) 11. The method in brief:
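Full-length N-His human HDAC11 from baculovirus, 5 ng/μl, incubated with 50 μM Boc-Lys(trifluoroacetyl)-AMC for 30 min at 30 °C. Buffer: 50 mM Tris-HCl pH 8.0, 137 mM NaCl, 2.7 mM KCl, 1 mM MgCl2, 1 mg/mL BSA, 1% DMSO. Developer releases AMC; fluorescence read at 360/460 nm.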

The target in assay [1] is T5, Complex of human HDAC3 and human NCOR2 (Homo sapiens, UniProt O15379).
T5 construct: full length with C-terminal His tag, MW=49.7 kDa; His (C); host or cells: baculovirus expression system (co-expressed)
The experiment in a line: HDAC3 biochemical assay, AMC-labeled peptide substrate. The settings on record: read-out: HDAC Isoform IC50 (nM) 3. The method in brief:
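Two-stage fluorogenic read: compounds incubated 1 h at 30° C with 50 μM RHKK(Ac)AMC and 0.1 ng/ul HDAC3–NCOR2(395-489) complex (Tris pH8.0, NaCl, KCl, MgCl2, BSA, 1% DMSO). Developer digestion of deacetylated product gives signal at Ex 360/Em 460.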

The target of another assay is T6, Human HDAC1 (Homo sapiens, UniProt Q13547).
T6 construct: full length with C-terminal His-tag and C-terminal FLAG-tag; His (C); FLAG (C); host or cells: baculovirus expression system
The experiment in a line: HDAC1 biochemical assay, AMC-labeled peptide substrate. Particulars: read-out: HDAC Isoform IC50 (nM) 1. The method in brief: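 Two-step fluorogenic read: HDAC1 deacetylates 50 μM acetyl-lysine AMC peptide RHKK(Ac)AMC for 1 h at 30° C (pH 8.0, 1% DMSO, with compound), then developer digests the product for fluorescence at Ex/Em 360/460. Enzyme is full-length human, His/FLAG-tagged, insect-cell expressed, at 0.3 ng/ul.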

T2 sequence (P56524 627-1084 limits assumed): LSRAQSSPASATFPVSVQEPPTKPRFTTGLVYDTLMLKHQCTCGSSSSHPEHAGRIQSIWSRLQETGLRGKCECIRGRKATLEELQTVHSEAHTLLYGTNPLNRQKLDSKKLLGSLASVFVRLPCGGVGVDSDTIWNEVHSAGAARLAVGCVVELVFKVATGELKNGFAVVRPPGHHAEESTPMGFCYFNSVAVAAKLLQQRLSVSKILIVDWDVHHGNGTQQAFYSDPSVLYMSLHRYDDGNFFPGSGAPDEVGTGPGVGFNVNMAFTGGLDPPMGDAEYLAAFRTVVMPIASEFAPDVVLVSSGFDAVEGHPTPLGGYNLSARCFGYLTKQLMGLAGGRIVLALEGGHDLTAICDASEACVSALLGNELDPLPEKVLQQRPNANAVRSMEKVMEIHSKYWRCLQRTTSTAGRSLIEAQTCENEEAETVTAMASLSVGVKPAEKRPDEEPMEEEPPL
T6 sequence (Q13547 whole entry): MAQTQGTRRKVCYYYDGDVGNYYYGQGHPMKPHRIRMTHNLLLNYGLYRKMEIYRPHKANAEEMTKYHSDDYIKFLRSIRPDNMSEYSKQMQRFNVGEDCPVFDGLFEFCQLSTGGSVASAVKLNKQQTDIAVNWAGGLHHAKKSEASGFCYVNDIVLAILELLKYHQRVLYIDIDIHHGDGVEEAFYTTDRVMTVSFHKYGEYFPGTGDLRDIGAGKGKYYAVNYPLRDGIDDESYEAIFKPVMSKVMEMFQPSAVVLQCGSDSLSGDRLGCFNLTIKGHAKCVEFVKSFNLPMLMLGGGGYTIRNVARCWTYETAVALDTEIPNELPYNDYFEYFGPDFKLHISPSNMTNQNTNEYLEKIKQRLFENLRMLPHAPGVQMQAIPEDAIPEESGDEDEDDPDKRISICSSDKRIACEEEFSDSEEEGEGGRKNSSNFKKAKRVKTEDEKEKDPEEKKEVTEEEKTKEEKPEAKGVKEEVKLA
T3 sequence (Q9UKV0 604-1066 isoform Q9UKV0-5): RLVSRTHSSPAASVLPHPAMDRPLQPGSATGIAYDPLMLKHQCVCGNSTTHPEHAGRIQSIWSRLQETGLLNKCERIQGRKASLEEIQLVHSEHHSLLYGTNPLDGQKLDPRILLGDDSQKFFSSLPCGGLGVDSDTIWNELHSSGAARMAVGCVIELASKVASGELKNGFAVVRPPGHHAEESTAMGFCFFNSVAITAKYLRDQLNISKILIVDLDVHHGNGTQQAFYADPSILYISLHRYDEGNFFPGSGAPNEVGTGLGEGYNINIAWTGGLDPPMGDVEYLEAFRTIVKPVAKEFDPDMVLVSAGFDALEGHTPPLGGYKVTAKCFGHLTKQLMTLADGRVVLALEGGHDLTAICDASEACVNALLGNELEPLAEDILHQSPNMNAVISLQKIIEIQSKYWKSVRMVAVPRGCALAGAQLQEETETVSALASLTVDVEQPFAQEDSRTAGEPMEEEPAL
T5 sequence (O15379 whole entry): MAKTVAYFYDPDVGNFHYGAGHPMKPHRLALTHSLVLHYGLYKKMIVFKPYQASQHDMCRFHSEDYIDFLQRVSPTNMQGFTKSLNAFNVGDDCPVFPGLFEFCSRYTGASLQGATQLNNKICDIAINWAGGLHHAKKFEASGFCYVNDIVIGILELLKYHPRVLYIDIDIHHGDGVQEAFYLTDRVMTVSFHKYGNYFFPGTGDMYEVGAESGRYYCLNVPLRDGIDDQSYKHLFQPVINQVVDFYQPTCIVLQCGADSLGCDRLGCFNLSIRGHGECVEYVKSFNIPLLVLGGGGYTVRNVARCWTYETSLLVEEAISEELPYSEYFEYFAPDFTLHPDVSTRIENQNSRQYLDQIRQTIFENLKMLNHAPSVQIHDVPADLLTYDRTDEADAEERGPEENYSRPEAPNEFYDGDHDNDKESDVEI
T5 sequence (Q9Y618 395-489 partner limits assumed): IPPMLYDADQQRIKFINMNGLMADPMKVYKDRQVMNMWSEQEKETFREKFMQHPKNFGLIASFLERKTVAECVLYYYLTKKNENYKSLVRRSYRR

In general, IC50 refers to the concentration that gives 50% inhibition. With `O=C(c1cnnc(N(Cc2ccc(-c3noc(C(F)(F)F)n3)s2)c2cnccn2)c1)N1CC2(COC2)C1` [Example FZ, 5-{2-Oxa-6-azaspiro[3.3]heptane-6-carbonyl}-N-(pyrazin-2-yl)-N-({5-[5-(trifluoromethyl)-1,2,4-oxadiazol-3-yl]thiophen-2-yl}methyl)pyridazin-3-amine], the IC50 on Human HDAC8 is at most 10000 nM; on Human HDAC4 it was at most 10000 nM; at Human HDAC9, at most 10000 nM; at Human HDAC11, above 10000 nM; in assay [1] it was above 10000 nM; on Human HDAC1 it was above 10000 nM.

For the molecule `O=C(c1cnnc(N(Cc2ccc(-c3noc(C(F)(F)F)n3)s2)c2cnccn2)c1)N1CC2CCC(C1)O2` [Example GA, 5-{8-Oxa-3-azabicyclo[3.2.1]octane-3-carbonyl}-N-(pyrazin-2-yl)-N-({5-[5-(trifluoromethyl)-1,2,4-oxadiazol-3-yl]thiophen-2-yl}methyl)pyridazin-3-amine], the IC50 was at most 10000 nM on Human HDAC8; at most 10000 nM at Human HDAC4; at most 10000 nM at Human HDAC9; above 10000 nM on Human HDAC11; above 10000 nM in assay [1]; above 10000 nM on Human HDAC1.

Consider `O=C(c1cnnc(N(Cc2ccc(-c3noc(C(F)(F)F)n3)s2)c2cnccn2)c1)N1C2CCC1COC2` [Example GB, 5-{3-Oxa-8-azabicyclo[3.2.1]octane-8-carbonyl}-N-(pyrazin-2-yl)-N-({5-[5-(trifluoromethyl)-1,2,4-oxadiazol-3-yl]thiophen-2-yl}methyl)pyridazin-3-amine], for which the IC50 on Human HDAC8 was at most 10000 nM; at Human HDAC4 it was at most 10000 nM; on Human HDAC9 it was at most 10000 nM; at Human HDAC11 it was above 10000 nM; in assay [1], above 10000 nM; at Human HDAC1, above 10000 nM.

With `CC(C)OC1CN(C(=O)c2cnnc(N(Cc3ccc(-c4noc(C(F)(F)F)n4)s3)c3cnccn3)c2)C1` [Example GC, 5-[3-(Propan-2-yloxy)azetidine-1-carbonyl]-N-(pyrazin-2-yl)-N-({5-[5-(trifluoromethyl)-1,2,4-oxadiazol-3-yl]thiophen-2-yl}methyl)pyridazin-3-amine], the IC50 was at most 10000 nM at Human HDAC8; at most 1000 nM at Human HDAC4; at most 10000 nM on Human HDAC9; above 10000 nM on Human HDAC11; above 10000 nM in assay [1]; above 10000 nM on Human HDAC1.

As for `O=C(c1cnnc(N(Cc2ccc(-c3noc(C(F)(F)F)n3)s2)c2cnccn2)c1)N1CC(O)(C(F)(F)F)C1` [Example GD, 1-{6-[(Pyrazin-2-yl)({5-[5-(trifluoromethyl)-1,2,4-oxadiazol-3-yl]thiophen-2-yl}methyl)amino]pyridazine-4-carbonyl}-3-(trifluoromethyl)azetidin-3-ol], the IC50 at Human HDAC8 is at most 10000 nM; at Human HDAC4, at most 10000 nM; on Human HDAC9 it was at most 10000 nM; on Human HDAC11, above 10000 nM; in assay [1], at most 10000 nM; on Human HDAC1, at most 10000 nM.

Consider `CN(C(=O)c1cnnc(N(Cc2ccc(-c3noc(C(F)(F)F)n3)s2)c2cnccn2)c1)S(C)(=O)=O` [Example GE, N-Methanesulfonyl-N-methyl-6-[(pyrazin-2-yl)({5-[5-(trifluoromethyl)-1,2,4-oxadiazol-3-yl]thiophen-2-yl}methyl)amino]pyridazine-4-carboxamide], for which the 50% inhibitory concentration (IC50) is at most 10000 nM on Human HDAC8; at most 10000 nM on Human HDAC4; at most 10000 nM at Human HDAC9; above 10000 nM at Human HDAC11; above 10000 nM in assay [1]; above 10000 nM on Human HDAC1.

Take `O=C(c1cnnc(N(Cc2ccc(-c3noc(C(F)(F)F)n3)s2)c2cnccn2)c1)N1CCC12COC2` [Example GF, 5-{6-Oxa-1-azaspiro[3.3]heptane-1-carbonyl}-N-(pyrazin-2-yl)-N-({5-[5-(trifluoromethyl)-1,2,4-oxadiazol-3-yl]thiophen-2-yl}methyl)pyridazin-3-amine]: the IC50 on Human HDAC8 was at most 10000 nM; on Human HDAC4, at most 1000 nM; on Human HDAC9, at most 10000 nM; at Human HDAC11 it was above 10000 nM; in assay [1] it was above 10000 nM; at Human HDAC1 it was above 10000 nM.
